Measurements as given in US8580710B2, “Pesticidal active mixtures comprising aminothiazoline compounds” (BASF SE, priority 2008, dated 2013).
Several values for one entry are separate records, joined by “and”; a condition that tells them apart may be missing. Equal values may be shown once.

Assays:
[1] = system: vetch aphid (Megoura viciae); assay: Test B.1: control of vetch aphid on broad bean leaf disks, contact or systemic; type: in vivo; details: sprayed on leaf disks, 5 days
Description: For evaluating control of vetch aphid (Megoura viciae) through contact or systemic means the test unit consisted of 24-well-microtiter plates containing broad bean leaf disks.
The compounds or mixtures were formulated using a solution containing 75 wt % water and 25 wt % DMSO. Different concentrations of formulated compounds or mixtures were sprayed onto the leaf disks at 2.5 μl, using a custom built micro atomizer, at two replications.
(§1) For experimental mixtures in these tests identical volumes of both mixing partners at the desired concentrations respectively, were mixed together.
After application, the leaf disks were air-dried and 5-8 adult aphids placed on the leaf disks inside the microtiter plate wells. The aphids were then allowed to suck on the treated leaf disks and incubated at 23±1° C., 50±5% RH (relative humidity) for 5 days. Aphid mortality and fecundity was then visually assessed.

[2] = system: green peach aphid (Myzus persicae); assay: Test B.2: control of green peach aphid through systemic means, artificial diet under membrane; type: in vivo; details: 3 days
Excerpt: For evaluating control of green peach aphid (Myzus persicae) through systemic means the test unit consisted of 96-well-microtiter plates containing liquid artificial diet under an artificial membrane.
The compounds or mixtures were formulated using a solution containing 75 wt % water and 25 wt % DMSO. Different concentrations of formulated compounds or mixtures were pipetted into the aphid diet, using a custom built pipetter, at two replications.
as §1
After application, 5-8 adult aphids were placed on the artificial membrane inside the microtiter plate wells. The aphids were then allowed to suck on the treated aphid diet and incubated at 23±1° C., 50±5% RH for 3 days. Aphid mortality and fecundity was then visually assessed. In all cases, a synergistic control effect according to Colby's equation was observed.

[3] = system: boll weevil (Anthonomus grandis); assay: Test B.3: control of boll weevil, insect diet with eggs; type: in vivo; details: sprayed on insect diet, 5 days
Description: For evaluating control of boll weevil (Anthonomus grandis) the test unit consisted of 24-well-microtiter plates containing an insect diet and 20-30 A. grandis eggs.
The compounds or mixtures were formulated using a solution containing 75 wt % water and 25 wt % DMSO. Different concentrations of formulated compounds or mixtures were sprayed onto the insect diet at 20 μl, using a custom built micro atomizer, at two replications.
as §1
After application, microtiter plates were incubated at 23±1° C., 50±5% RH for 5 days. Egg and larval mortality was visually assessed.

[4] = system: tobacco budworm (Heliothis virescens); assay: Test B.5: control of tobacco budworm, insect diet with eggs; type: in vivo; details: 5 days
Description: For evaluating control of tobacco budworm (Heliothis virescens) the test unit consisted of 96-well-microtiter plates containing an insect diet and 15-25 H. virescens eggs.
The compounds or mixtures were formulated using a solution containing 75 wt % water and 25 wt % DMSO. Different concentrations of formulated compounds or mixtures were sprayed onto the insect diet at 10 μl, using a custom built micro atomizer, at two replications.
as §1
(§2) After application, microtiter plates were incubated at 28±1° C., 80±5% RH for 5 days. Egg and larval mortality was visually assessed.

[5] = system: Mediterranean fruitfly (Ceratitis capitata); assay: Test B.4: control of Mediterranean fruitfly, insect diet with eggs; type: in vivo; details: 5 days
Description: For evaluating control of Mediterranean fruitfly (Ceratitis capitata) the test unit consisted of 96-well-microtiter plates containing an insect diet and 50-80 C. capitata eggs.
The compounds or mixtures were formulated using a solution containing 75 wt % water and 25 wt % DMSO. Different concentrations of formulated compounds or mixtures were sprayed onto the insect diet at 5 μl, using a custom built micro atomizer, at two replications.
as §1, §2

[6] = 100 ppm sprayed onto insect diet
[7] = 4 ppm in aphid diet, mortality and fecundity
[8] = 0.4 ppm sprayed onto insect diet
[9] = 10 ppm sprayed onto insect diet
[10] = 40 ppm sprayed onto insect diet

Q: For `Cc1cc(C)cc(CC(NC2=NCCS2)c2cccc3cccnc23)c1` (stereo not drawn), which melting point is on record?
A: 95 to 96 °C

Q: For `O=[N+]([O-])NC1=NCCN1Cc1ccc(Cl)nc1` [imidacloprid], which “Average Control” value ([1]; 0.016 ppm) is on record?
A: 0%

Q: What about the “Average Control” value ([1]; 2 ppm) of the same compound?
A: 50%

Q: And the “Average Control [%]” value ([2]; 0.4 ppm in aphid diet)?
A: 50%

Q: Which melting point does the source give for `Cc1cc(C)cc(CC(NC2=NCCS2)c2cccc3c2C(C)(C)C(=O)N3C)c1` (stereo not drawn) here?
A: 270 to 272 °C

Q: With `CC1(C)C(C=C(Cl)Cl)C1C(=O)OC(C#N)c1cccc(Oc2ccccc2)c1` (stereo not drawn) [alphacypermethrin] as the compound, how does the “Average Control” value ([1]; 0.08 ppm) read?
A: 0%

Q: What about the “Average Control” value ([1]; 2 ppm) of the same compound?
A: 50%

Q: What about the “Average Control” value ([3]; 0.04 ppm) of the same compound?
A: 25%

Q: For `Cc1cc(C)cc(CC(NC2=NCCS2)c2cccc3c2CCCC3)c1` (stereo not drawn), which melting point is on record?
A: 139 to 141 °C

Q: For `Cc1cc(C)cc(CC(N=C2NCCS2)c2cccc3c2OCCO3)c1` (stereo not drawn) [compound C.I-27], which “Average Control [%]” value [4, 6] is on record?
A: 0%

Q: What about the “Average Control [%]” value ([5]; 0.16 ppm sprayed onto insect diet) of the same compound?
A: 0%

Q: What about the “Average Control [%]” value ([5]; 20 ppm sprayed onto insect diet) of the same compound?
A: 0%

Q: And the “Average Control [%]” value ([5]; 100 ppm sprayed onto insect diet, egg and larval mortality)?
A: 0%

Q: What about the “Average Control” value ([1]; 0.16 ppm) of the same compound?
A: 0%

Q: And the “Average Control [%]” value ([2]; 0.16 ppm in aphid diet)?
A: 0%

Q: And the “Average Control [%]” value [2, 7]?
A: 0%

Q: What about the “Average Control [%]” value ([2]; 20 ppm in aphid diet) of the same compound?
A: 0%

Q: What about the “Average Control” value ([3]; 0.16 ppm) of the same compound?
A: 0%

Q: What about the “Average Control” value ([3]; 0.8 ppm) of the same compound?
A: 0%

Q: And the “Average Control” value ([3]; 20 ppm)?
A: 0%

Q: What about the “Average Control” value ([3]; 100 ppm) of the same compound?
A: 0%

Q: What does the source list for `CNC(=O)c1cc(C#N)cc(C)c1NC(=O)c1cc(Br)nn1-c1ncccc1Cl` [cyazypyr]?
A: Average Control [%] [4, 8]: 0%; Average Control [%] [5, 9]: 50%; Average Control ([1]; 0.4 ppm): 0%; Average Control ([3]; 0.4 ppm): 0%

Q: With `Cc1cc(C)cc(CC(N=C2NCCS2)c2cccc3c2OCC3)c1` (stereo not drawn) [compound C.I-47] as the compound, how does the “Average Control [%]” value ([4]; 4 ppm sprayed onto insect diet, egg and larval mortality) read?
A: 0%

Q: And the “Average Control” value ([1]; 0.16 ppm)?
A: 0%

Q: What about the “Average Control” value ([1]; 0.8 ppm) of the same compound?
A: 50%

Q: What about the “Average Control [%]” value ([2]; 0.8 ppm in aphid diet) of the same compound?
A: 0%

Q: What about the “Average Control [%]” value [2, 7] of the same compound?
A: 25% and 50%

Q: Which “Average Control [%]” value [4, 6] does the source give for `N#CCNC(=O)c1cnccc1C(F)(F)F` [flonicamid] here?
A: 0%

Q: What about the “Average Control” value ([1]; 0.8 ppm) of the same compound?
A: 0%

Q: What about the “Average Control [%]” value [2, 7] of the same compound?
A: 0%

Q: And the “Average Control” value ([3]; 100 ppm)?
A: 0%

Q: For `CN1COCN(Cc2cnc(Cl)s2)/C1=N\[N+](=O)[O-]` [thiamethoxam], which “Average Control [%]” value [5, 9] is on record?
A: 25%

Q: What about the “Average Control” value ([3]; 2 ppm) of the same compound?
A: 25%

Q: For `CC(C)(C)c1ccc(CSc2cnn(C(C)(C)C)c(=O)c2Cl)cc1` [pyridaben], which “Average Control [%]” value [4, 10] is on record?
A: 0%

Q: And the “Average Control [%]” value [5, 10]?
A: 25%

Q: And the “Average Control” value ([3]; 8 ppm)?
A: 50%

Q: With `Cc1cc(C)cc(CC(NC2=NCCS2)c2cccc3c2CCC3)c1` (stereo not drawn) as the compound, how does the melting point read?
A: 120 to 124 °C

Q: Which results are given for abamectin?
A: Average Control [%] ([5]; 0.016 ppm sprayed onto insect diet): 0%; Average Control ([1]; 0.08 ppm): 0%; Average Control [%] ([2]; 0.016 ppm in aphid diet): 0%; Average Control [%] ([2]; 0.08 ppm in aphid diet): 0%; Average Control ([3]; 0.016 ppm): 25%

Q: With `N#Cc1nn(-c2c(Cl)cc(C(F)(F)F)cc2Cl)c(N)c1[S+]([O-])C(F)(F)F` (stereo not drawn) [fipronil] as the compound, how does the “Average Control [%]” value [5, 8] read?
A: 25%

Q: What about the “Average Control [%]” value ([2]; 2 ppm in aphid diet) of the same compound?
A: 50%

Q: For `CCOC(=O)OC1=C(c2cc(C)ccc2C)C(=O)N[C@]12CC[C@@H](OC)CC2` [spirotetramat], which “Average Control” value ([1]; 0.8 ppm) is on record?
A: 0%

Q: And the “Average Control [%]” value [2, 7]?
A: 0%

Q: What about the “Average Control [%]” value ([2]; 20 ppm in aphid diet) of the same compound?
A: 0%

Q: With `CNC(=O)c1cc(Cl)cc(C)c1NC(=O)c1cc(Br)nn1-c1ncccc1Cl` [rynaxypyr] as the compound, how does the “Average Control” value ([1]; 0.4 ppm) read?
A: 0%
